Test results as given in US8883473B2, “Methods of treatment using allosteric processing inhibitors for matrix metalloproteinases” (Janssen Pharmaceutica N.V., priority 2011, dated 2014).

Tests used:
[1] = tested on: female Lewis rats with SCW-induced arthritis; assay: Efficacy in rats with SCW-induced arthritis (ankle thickness, clinical scores); type: in vivo, rat
Procedure: To induce arthritis, Female Lewis (LEW/N) rats, 5-6 weeks of age (80-100 g) were injected (i.p.) with SCW PG-PS as described above. Eighteen days later, arthritis was well established. Calipers were used to measure the width (anterior to posterior surface) of the left and right hind ankles of each rat. Each ankle was measured 3 times and averaged, and treatment groups were randomized based on ankle thickness (Table 6). Commencing on day 18, randomized groups of arthritic rats (n=5 rats/group) received vehicle or 5, 20, or 50 mg/kg Example 2 BID by oral gavage. Vehicle consisted of an aqueous mixture containing 2% (v:v) N-methylpyrrolidone, 5% (v:v) glycerine, and 20% (w:v) captisol. Treatment continued daily through the morning of day 26.
By day 18 mean ankle thickness was increased an average of >4.4 mm compared to disease free rats. Rats treated with vehicle alone continued to gradually develop a more severe arthritis based on ankle thickness measurements over the eight-day treatment period (Table 6). […] By day 26, the disease associated increase in ankle thickness had been reduced 27, 37, and 46 percent by 5, 20, and 50 mg/kg Example 2, respectively.
Hind paw inflammation clinical scores were assigned based on swelling and erythema.

MMP9 = biological target: T1, MMP9 (Rattus norvegicus, UniProt P50282); assay: Pro and active MMP9 in ankles of rats with SCW-induced arthritis by Western blot; type: in vivo; conditions: day 26, four hours after the AM dose, mAb-L51/82
T1 construct: Pro and active MMP9 were abundantly present in ankles of SCW-induced vehicle-treated rats; from tissue; host or cells: tibia-tarsus joints (ankles) of female Lewis rats
Procedure: Hind-limbs were skinned, severed just above the tibia-tarsus joint and below the metatarsals, and the tibia-tarsus joints (ankles) were weighed, snap frozen and pulverized on dry ice using a hammer and anvil. The pulverized tissue was suspended in 3 volumes (w:v) of ice-cold homogenization buffer containing 50 mM Tris pH 7.5, 150 mM NaCl, 5 mM EDTA, 1% Triton X100, 0.05% Brij 30, 10% dimethylsulfoxide and Complete EDTA-free Protease Inhibitor Cocktail (Roche Diagnostics). The suspended tissue was homogenized sequentially with a Kinematica AG Polytron and a Dounce homogenizer. Homogenates were centrifuged at 16,000×g for 10 min at 4° C. and the soluble fractions were saved. Dimethylsulfoxide was removed from a portion of each soluble fraction using PD MiniTrap™ G-25 desalting columns (GE Healthcare). Homogenates (0.25 mL), free of DMSO, were diluted with an equal volume of binding buffer (i.e., homogenization buffer without dimethylsufoxide) and adjusted to contain 50 μL of a 50% slurry of gelatin-conjugated sepharose. Following 2 hours of rotation at 4° C. the beads were washed twice in binding buffer and eluted in 100 μL 2×-reducing Laemmli buffer with heating to 95° C. for 5 minutes. […]

T1 sequence (P50282 108-708): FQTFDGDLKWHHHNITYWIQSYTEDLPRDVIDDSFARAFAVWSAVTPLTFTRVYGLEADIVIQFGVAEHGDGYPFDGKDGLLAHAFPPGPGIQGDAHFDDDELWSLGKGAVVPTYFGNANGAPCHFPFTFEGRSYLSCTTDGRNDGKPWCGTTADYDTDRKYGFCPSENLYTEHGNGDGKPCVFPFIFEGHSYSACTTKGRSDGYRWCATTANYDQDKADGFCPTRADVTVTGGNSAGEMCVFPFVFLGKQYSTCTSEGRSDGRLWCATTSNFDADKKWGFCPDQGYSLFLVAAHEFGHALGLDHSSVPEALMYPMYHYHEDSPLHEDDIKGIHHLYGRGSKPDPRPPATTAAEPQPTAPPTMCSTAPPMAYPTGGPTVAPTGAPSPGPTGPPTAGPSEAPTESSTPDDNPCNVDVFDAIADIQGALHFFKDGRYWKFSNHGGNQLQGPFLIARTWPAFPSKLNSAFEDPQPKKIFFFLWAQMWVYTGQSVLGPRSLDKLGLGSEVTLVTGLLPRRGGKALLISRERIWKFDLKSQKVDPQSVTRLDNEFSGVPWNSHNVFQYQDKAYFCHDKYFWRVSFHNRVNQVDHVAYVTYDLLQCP

abundance of proMMP9 in ankles (MMP9): did not reduce
SMILES: Cc1nc(C)c(-c2csc(Nc3cc(S(N)(=O)=O)ccc3OC(C)C)n2)s1 [Example 2, 3-(2′,4′-Dimethyl-[4,5′]bithiazolyl-2-ylamino)-4-isopropoxy-benzenesulfonamide.HBr]
ankle thickness measurements ([1]; 5, 20, 50 mg/kg BID oral gavage Day 18-26): dose-dependent decrease
clinical score measurements ([1]; 5, 20, 50 mg/kg BID, significant effects emerging at the 20 mg/kg dose): dose dependent decrease
